Reference: patent US20140370080A1, “HISTONE DEACETYLASE (HDAC) INHIBITORS FOR TREATMENT OF POST-SURGICAL ADHESIONS” (TRUSTEES OF BOSTON UNIVERSITY, priority 2011, published 2014)

What was measured:
adhesion formation = test: Ischemic button model of intraabdominal adhesion formation, adhesion scoring on postoperative day 7; assay type: in vivo, Male Wistar rats; conditions: for % Reduction (of adhesion formation vs control) / Mean adhesion formation (percentage of ischemic buttons with attached adhesions): rats, single intra-operative intraperitoneal dose (SAHA 50 mg/kg, MS-275 10 mg/kg); for % Reduction (of adhesion formation vs control): postoperative day 7; for Mean adhesion formation (percentage of ischemic buttons with attached adhesions): scored postoperative day 7, N=6; for treatment of surgical adhesions (result in words): single intra-operative dose, FIG. 4
Procedure: (§1) The surgical procedure described in Chu et al. (Surgery, 2011, 149(6): 801-812), content of which is herein incorporated by reference in its entirety, was used to test the HDAC inhibitors discussed herein. […] Adhesions were induced on the day of operation using our previously described ischemic button model. Animals were killed on postoperative day 7 for adhesion scoring. The effect of the HDAC inhibitors on intestinal wound healing was measured using colonic anastomotic burst pressures.
Male Wistar rats (range, 200-225 g; Charles River Laboratories, Wilmington, Mass.) warehoused at constant room temperature and under 12-hour light/12-hour dark cycles and allowed access to food and water ad libitum. The Institutional Animal Care and Use Committee at the Boston University School of Medicine approved this study, and all procedures described were performed in accordance with recommendations outlined in the Guide for the Care and Use of Laboratory Animals: Eighth Edition (NRC 2011) published by the National Academies of Science.
Intraperitoneal ischemic buttons were created as described in Reed et al. (J. Surgical Res., 2002, 108:165-172), content of which is herein incorporated by reference in its entirety. In brief, after a midline laparotomy, 6 ischemic buttons (3 on each side) were created by ligating 5 mm of parietal peritoneum with 4-0 silk suture. Adhesion formation was quantified in a blinded fashion on postoperative day 7 by scoring the percentage of buttons with attached fibrinous adhesions in each rat. For example, an animal that had adhesions attached to 4 of its 6 ischemic buttons received a score of 66%.

[1] = tested on: anastomotic wound healing; test: Colonic anastomotic burst pressure (intestinal wound healing); assay type: in vivo, Male Wistar rats; conditions: 50 mg/kg intraperitoneally, single intra-op dose, at 7 days, FIG. 3B
Procedure: as §1
In the final experiment, the inventors tested the effects of intraperitoneal HDAC inhibitors on anastomotic wound healing. Male Wistar rats were randomized to operative controls (OP Control) or operative treatment with HDAC inhibitor as noted in the figure. […] In brief, after laparotomy and division of the distal colon, an end-to-end colonic anastomosis was created using a single running layer of 7-0 polypropylene suture. Animals were killed 7 days postoperatively and, after removing a 4-cm segment containing the anastomosis, the segment underwent measurements of burst pressure as described in Aarons et al. (Annals of Surgery, 2007, 245(2): 176-184), content of which is incorporated herein by reference in its entirety.

Structure (SMILES)	% Reduction (of adhesion formation vs control) (adhesion formation) [%]	Mean adhesion formation (percentage of ischemic buttons with attached adhesions) (adhesion formation) [%]	treatment of surgical adhesions (result in words) (adhesion formation)	adhesion formation (adhesion formation; 25 mg/kg, three doses (pre-op, intra-op and pre-op), FIG. 2A)	adhesion formation (adhesion formation; 50 mg/kg intraperitoneally, 3 doses (24 hr pre-op, intra-op, 24 hrs post-op), at 7 days, FIG. 1B)	adhesion formation (adhesion formation; 50 mg/kg intraperitoneally, single intra-op dose, at 7 days, FIG. 2A)	adhesion formation (adhesion formation; 100 mg/kg intraperitoneally, 3 doses (24 hr pre-op, intra-op, 24 hrs post-op), at 7 days, FIG. 1A)	adhesion formation (adhesion formation; 200 mg/kg intraperitoneally, 3 doses (24 hr pre-op, intra-op, 24 hrs post-op), FIG. 1A)	anastomotic wound healing (burst pressure) [1]
Nc1ccccc1NC(=O)c1ccc(CNC(=O)OCc2cccnc2)cc1 [MS-275]	45.16	47.2222	effective	–	–	–	–	–	–
O=C(CCCCCCC(=O)Nc1ccccc1)NO [SAHA, suberoylanlide hydroxamic acid]	48.39	44.4444	effective	–	–	–	–	–	–
CCCC(CCC)C(=O)O [valproic acid]	–	–	–	effective	significantly reduced	significantly reduced	significantly reduced	effective	did not affect
